Source: ChEMBL document CHEMBL2146450, “DNA Sequence Preference and Adduct Orientation of Pyrrolo[2,1-c][1,4]benzodiazepine Antitumor Agents” (ACS Med Chem Lett, 2010)

Legend:
Assay type in all cases: nucleic-acid assay
[1] = test system: Nucleic Acid; assay: Binding affinity to 5'-AGA-TATA-TTT-TATA-TCT at 200 uM by HPLC/MS analysis
[2] = test system: Nucleic Acid; assay: Binding affinity to 5'-TATA-AGT-TTT-ACT-TATA at 200 uM by HPLC/MS analysis
[3] = test system: Nucleic Acid; assay: Binding affinity to 5'-TGT-TATA-TTT-TATA-ACA at 200 uM by HPLC/MS analysis
[4] = test system: Nucleic Acid; assay: Binding affinity to 5'-TGA-TATA-TTT-TATA-TCA at 200 uM by HPLC/MS analysis
[5] = test system: Nucleic Acid; assay: Binding affinity to 5'-TATA-AGA-TTT-TCT-TATA at 200 uM by HPLC/MS analysis
[6] = test system: Nucleic Acid; assay: Binding affinity to 5'-TATA-TGA-TTT-TCA-TATA at 200 uM by HPLC/MS analysis
[7] = test system: Nucleic Acid; assay: Binding affinity to 5'-TATA-TGT-TTT-ACA-TATA at 200 uM by HPLC/MS analysis
[8] = test system: Nucleic Acid; assay: Binding affinity to 5'-AGT-TATA-TTT-TATA-ACT at 200 uM by HPLC/MS analysis

COC(=O)c1cc(NC(=O)c2cc(NC(=O)CCCOc3cc4c(cc3OC)C(=O)N3CCC[C@H]3C=N4)cn2C)cn1C
K [1]: 0.132 µM/min | K [2]: 0.124 µM/min | K [3]: > 0.808 µM/min | K [4]: 0.196 µM/min | K [5]: 0.091 µM/min | K [6]: > 0.364 µM/min | K [7]: > 0.506 µM/min | K [8]: 0.096 µM/min
